Assay results reported in patent US20180237424A1, “FGFR3 ANTAGONISTS” (INSERM (INSTITUT NATIONAL DE LA SANTE ET DE LA RECHERCHE …, priority 2015, published 2018).

Key:
FGFR3-K650E = target: T1, FGFR3-K650E (Homo sapiens, UniProt P22607, K650E); experiment: in cellulo FGFR3 phosphorylation in HEK 293 VNR cells transfected with FGFR3-K650E (immunoprecipitation, western blot); format: cell-based
T1 construct: expressed in transfected cells; host or cells: HEK 293 VNR cells

FGFR3 WT = FGFR3 WT (Homo sapiens, UniProt P22607); experiment: in vitro inhibition of FGFR3 (WT); format: biochemical
Chain of FGFR3 WT (P22607 23-806): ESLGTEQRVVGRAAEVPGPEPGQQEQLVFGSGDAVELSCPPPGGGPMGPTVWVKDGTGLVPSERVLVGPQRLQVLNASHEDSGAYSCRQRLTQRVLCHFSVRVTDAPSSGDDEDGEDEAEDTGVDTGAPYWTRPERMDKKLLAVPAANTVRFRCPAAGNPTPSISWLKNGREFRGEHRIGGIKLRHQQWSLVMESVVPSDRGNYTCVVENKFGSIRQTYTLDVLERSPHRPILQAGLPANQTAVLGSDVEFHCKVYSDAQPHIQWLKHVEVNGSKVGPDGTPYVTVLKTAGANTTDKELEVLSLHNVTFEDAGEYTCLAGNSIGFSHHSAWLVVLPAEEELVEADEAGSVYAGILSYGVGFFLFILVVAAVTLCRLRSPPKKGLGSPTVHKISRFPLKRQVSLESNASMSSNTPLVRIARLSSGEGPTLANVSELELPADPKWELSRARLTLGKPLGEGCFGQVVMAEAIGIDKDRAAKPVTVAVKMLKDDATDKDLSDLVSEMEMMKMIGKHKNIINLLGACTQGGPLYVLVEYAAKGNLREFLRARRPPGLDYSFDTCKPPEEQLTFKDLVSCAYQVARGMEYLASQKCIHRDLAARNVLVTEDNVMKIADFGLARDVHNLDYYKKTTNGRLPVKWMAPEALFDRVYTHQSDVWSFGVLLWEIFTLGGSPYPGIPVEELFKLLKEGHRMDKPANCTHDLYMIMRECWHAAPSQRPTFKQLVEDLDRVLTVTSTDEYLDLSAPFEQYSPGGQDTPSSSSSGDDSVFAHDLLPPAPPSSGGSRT

T1 sequence (P22607 23-806 K650E): as the sequence (P22607 23-806) above, with K628E counted along it

`COC(=O)c1c(NC(C)=O)c(-c2noc(-c3ccc(Br)cc3)n2)nn1-c1cccc(OC)c1` [Cpd 24, Methyl 4-acetamido-3-(5-(4-bromophenyl)-1,2,4-oxadiazol-3-yl)-1-(3-methoxyphenyl)-1H-pyrazole-5-carboxylate] showed an IC50 (FGFR3-K650E) of 150 nM and a melting point of 224 °C.
With `COC(=O)c1c(NC(C)=O)c(-c2noc(-c3ccc([N+](=O)[O-])cc3)n2)nn1-c1cccc(OC)c1` [Cpd 25] the inhibition at 0.5 µM (FGFR3-K650E; HEK293, @ 500 nM, K650E) was 0%.
Work on `COC(=O)c1c(NC(C)=O)c(-c2noc(-c3ccc(N(C)C)cc3)n2)nn1-c1cccc(OC)c1` [Cpd 27, Methyl 4-acetamido-3-(5-(4-(dimethylamino)phenyl)-1,2,4-oxadiazol-3-yl)-1-(3-methoxyphenyl)-1H-pyrazole-5-carboxylate] yielded a melting point of 196 °C.
With `COC(=O)c1c(NC(C)=O)c(-c2noc(-c3ccc([N+](=O)[O-])cc3)n2)nn1-c1cccc(-c2cn(Cc3ccccc3)nn2)c1` [Cpd 64] the IC50 (FGFR3 WT; no qualifier printed (column % in vitro inhibition)) was 2000 nM.
In the case of `CC(=O)Nc1c(-c2noc(-c3ccc([N+](=O)[O-])cc3)n2)nn(-c2cccc(-c3cn(Cc4ccccc4)nn3)c2)c1C(=O)NCc1ccccc1` [Cpd 79], the inhibition at 10 µM (FGFR3 WT) is reported as 21% and the inhibition at 50 µM (FGFR3 WT) is reported as 97%.
Compound `COC(=O)c1c(NC(C)=O)c(-c2noc(-c3ccccc3)n2)nn1-c1cccc(OC)c1` [Cpd 134, Methyl 4-acetamido-1-(3-methoxyphenyl)-3-(5-phenyl-1,2,4-oxadiazol-3-yl)-1H-pyrazole-5-carboxylate] has a melting point of 186 to 188 °C.
With `COC(=O)c1c(NC(C)=O)c(-c2noc(-c3ccc([N+](=O)[O-])cc3)n2)nn1-c1cccc(OC)c1` [Example 2, Methyl 4-acetamido-1-(3-methoxyphenyl)-3-(5-(4-nitrophenyl)-1,2,4-oxadiazol-3-yl)-1H-pyrazole-5-carboxylate] the melting point was 248 °C.
